From patent US11845730B2, “1,3-substituted cyclobutyl derivatives and uses thereof” (Novartis AG, priority 2021, dated 2023)
Counter-ions that a name gives are not always drawn.

biological target: human TRPV1 (Homo sapiens (Human), UniProt Q8NER1); conditions: read-out: IC50 (μM), antagonist effect against human TRPV1; CHO cells expressing human TrpV1; stimulated with 2.5 μM NADA (EC80); mean of at least three independent experiments
Sequence (Q8NER1 whole entry): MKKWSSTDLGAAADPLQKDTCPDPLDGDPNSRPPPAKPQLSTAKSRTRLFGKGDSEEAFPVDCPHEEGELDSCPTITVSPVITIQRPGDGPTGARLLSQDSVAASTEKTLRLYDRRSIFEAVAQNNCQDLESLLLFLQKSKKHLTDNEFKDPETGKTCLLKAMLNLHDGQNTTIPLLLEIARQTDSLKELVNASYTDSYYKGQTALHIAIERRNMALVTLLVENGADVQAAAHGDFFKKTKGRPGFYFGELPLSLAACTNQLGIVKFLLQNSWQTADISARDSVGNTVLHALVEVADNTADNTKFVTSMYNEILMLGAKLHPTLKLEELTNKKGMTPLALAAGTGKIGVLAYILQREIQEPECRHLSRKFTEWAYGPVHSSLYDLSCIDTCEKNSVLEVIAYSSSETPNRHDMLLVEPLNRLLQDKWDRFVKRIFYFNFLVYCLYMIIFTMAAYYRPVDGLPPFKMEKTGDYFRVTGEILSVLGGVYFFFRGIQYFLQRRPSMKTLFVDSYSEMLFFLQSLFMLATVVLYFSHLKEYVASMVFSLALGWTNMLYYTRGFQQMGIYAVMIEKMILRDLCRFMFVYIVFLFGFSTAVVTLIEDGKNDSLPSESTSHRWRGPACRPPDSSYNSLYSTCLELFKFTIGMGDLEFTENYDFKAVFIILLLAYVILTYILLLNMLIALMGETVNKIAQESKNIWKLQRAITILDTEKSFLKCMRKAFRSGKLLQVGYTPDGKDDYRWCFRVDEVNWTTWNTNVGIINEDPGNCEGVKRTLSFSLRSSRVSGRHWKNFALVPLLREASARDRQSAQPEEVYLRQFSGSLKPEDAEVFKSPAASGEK
Method: Chinese Hamster Ovary (CHO) cells transfected to express human TrpV1 receptor (which are herein referred to as CHO-huTrpV1 cells), were grown in F-12 Ham's Nutrient Mixture media (HyClone SH30026.01) supplemented with 10% Fetal Bovine Serum (Invitrogen #26140-079), 1% Antibiotic/antimycotic (Invitrogen #15240-062) and 500 ug/mL geneticin (ThermoFisher scientific #1031035). Cells were grown in T-75 flasks at 37° C. incubator with 5% CO2. The cells were passaged twice a week at a ratio of 1:10 to 1:20 to maintain steady growth. For experimentation, cells were harvested at approximately 80% confluency and plated onto 384 well black cell culture plates (cat #781091, Greinier Bio-One Inc.) at 15,000 cells per well in 20 μl media and grown overnight.
The loading dye was prepared following instruction of Calcium 6 assay kit (Molecular Probes, #R8190): 10 ml buffer from bottle B was added to 1 vial of bottle A (adapted to room temperature from −20° C.) and mixed well, then 2.5 mM of fresh prepared probenecid, was added and mixed well. 20 μl/well of loading dye was added on top of the cells, and incubated at 37° C. for 1 hour 30 min.
Assay buffer preparation: 1×HBSS, 2 mM HEPES, 0.1% BSA plus 2.5 mM freshly prepared probenecid (Invitrogen, #P36400). 25 μl/well assay buffer in 384 well clear plate (cat #782281, Greiner Bio-one) was dispensed with buffer distributor (Multidrop ComB1 from Thermo Scientific). The compounds were in 384 Echo plate (cat #LPL0200, Labcyte) and the starting concentration of compound was 10 mM, then 1 to 3 serial dilution in 100% DMSO, 8 ul/well). 125 nl compounds was transferred to the 384 well plate containing 25 μl/well buffer with Echo® 555 Liquid Handler (Labcyte), such that the compound concentration was 5 fold of final concentration. The plate was shook slowly at 40 rpm/min for 10 min to mix. 10 μl of 5 fold compound in the buffer was transferred to the cell plate (containing 20 μl cells and 20 μl dye) using Vertical Pipetting Station 384ST (Agilent Technologies). Six fold of final concentration of NADA (N-arachidonyl dopamine, cat #A8848, Sigma) in the assay buffer was prepared and 30 μl/well was distributed in 384 well clear plate.
After compounds were added to the cell plate with loading dye, within 10-15 minutes, cell plate and plate containing NADA was placed into the FLIPR (Fluorescent Imaging Plate Reader) instrument (Tetra System, Molecular device). The TRPV1 receptor was stimulated by application of 10 μl per well of NADA. For testing the effect of compounds for possible antagonism, 2.5 μM NADA was used at the EC80 concentration.
For determination of antagonist IC50 values (concentration of antagonist that inhibits response to NADA by 50%), at least 10 antagonist concentration were measured in triplicate. The response in the presence of the antagonist was calculated as a percentage of the control response to NADA and was plotted against the concentration of the antagonist. The IC50 was estimated by non-linear regression analysis to sigmoidal-logistic curves by HELIOS (PROD 2) system. These values were averaged (means and standard error of the mean) for at least three independent experiments.

Row | Structure (SMILES) | IC50 [µM]
1 | Oc1ccc(CN[C@H]2C[C@H](Oc3ccc(F)c(C(F)(F)F)c3)C2)c2ccncc12 [Example 23, 5-((((1r,3r)-3-(4-fluoro-3-(trifluoromethyl)phenoxy)cyclobutyl)amino)methyl)isoquinolin-8-ol, HCl] | 0.232
2 | Fc1ccc2cnccc2c1CN[C@H]1C[C@H](Oc2cccc(C3(C(F)(F)F)CCO3)c2)C1 (some centres unmarked) [Example 44, (1r,3r)-N-((6-fluoroisoquinolin-5-yl)methyl)-3-(3-(2-(trifluoromethyl)oxetan-2-yl)phenoxy)cyclobutan-1-amine] | 0.0326
3 | OCCC(O)c1cc(F)c(CNC2CC(Oc3ccc(F)c(C(F)(F)F)c3)C2)c2ccncc12 (racemic) [Example 9 racemic, 1-(6-fluoro-5-((((1r,3r)-3-(4-fluoro-3-(trifluoromethyl)phenoxy)cyclobutyl)amino)methyl)isoquinolin-8-yl)propane-1,3-diol] | 0.00058
4 | Cc1ccc(O[C@H]2C[C@H](NCc3c(F)ccc4cnccc34)C2)cc1C [Example 79, (1r,3r)-3-(3,4-dimethylphenoxy)-N-((6-fluoroisoquinolin-5-yl)methyl)cyclobutan-1-amine, HCl] | 0.147
5 | N#Cc1ncc(O[C@H]2C[C@H](NCc3c(F)ccc4cnccc34)C2)cn1 [Example 108, 5-((1r,3r)-3-(((6-fluoroisoquinolin-5-yl)methyl)amino)cyclobutoxy)pyrimidine-2-carbonitrile] | 2.51
6 | Nc1cc2c(CN[C@H]3C[C@H](Oc4ccc(F)cc4F)C3)c(F)ccc2cn1 [Example 15, 5-((((1r,3r)-3-(2,4-difluorophenoxy)cyclobutyl)amino)methyl)-6-fluoroisoquinolin-3-amine, HCl] | 0.051
7 | OC(CC(F)(F)F)c1cc(F)c(CN[C@H]2C[C@H](Oc3ccc(F)c(C(F)(F)F)c3)C2)c2ccncc12 (some centres unmarked) [Example 11, 3,3,3-trifluoro-1-(6-fluoro-5-((((1r,3r)-3-(4-fluoro-3-(trifluoromethyl)phenoxy)cyclobutyl)amino)methyl)isoquinolin-8-yl)propan-1-ol] | 0.395
8 | Fc1cc(O[C@H]2C[C@H](NCc3c(F)ccc4cnccc34)C2)cnc1F [Example 57, (1r,3r)-3-((5,6-difluoropyridin-3-yl)oxy)-N-((6-fluoroisoquinolin-5-yl)methyl)cyclobutan-1-amine] | 0.656
9 | CC(=O)NCC(O)c1cc(F)c(CN[C@H]2C[C@H](Oc3ccc(F)c(C(F)(F)F)c3)C2)c2ccncc12 (some centres unmarked) [Example 70, N-(2-(6-fluoro-5-((((1r,3r)-3-(4-fluoro-3-(trifluoromethyl)phenoxy)cyclobutyl)amino)methyl)isoquinolin-8-yl)-2-hydroxyethyl)acetamide] | 0.402
10 | Fc1ccc2cnccc2c1CN[C@H]1C[C@H](Oc2cnc(Cl)c(C(F)(F)F)c2)C1 [Example 62, (1r,3r)-3-((6-chloro-5-(trifluoromethyl)pyridin-3-yl)oxy)-N-((6-fluoroisoquinolin-5-yl)methyl)cyclobutan-1-amine] | 0.336
11 | COc1c(F)cc(O[C@H]2C[C@H](NCc3c(F)ccc4cnccc34)C2)cc1F [Example 49, (1r,3r)-3-(3,5-difluoro-4-methoxyphenoxy)-N-((6-fluoroisoquinolin-5-yl)methyl)cyclobutan-1-amine] | 0.0163
12 | NCC(O)c1cc(F)c(CN[C@H]2C[C@H](Oc3ccc(F)c(C(F)(F)F)c3)C2)c2ccncc12 (some centres unmarked) [Example 104, 2-amino-1-(6-fluoro-5-((((1r,3r)-3-(4-fluoro-3-(trifluoromethyl)phenoxy)cyclobutyl)amino)methyl)isoquinolin-8-yl)ethan-1-ol] | 2.15
13 | CCc1ccc2cnccc2c1CN[C@H]1C[C@H](Oc2ccc(F)c(C(F)(F)F)c2)C1 [Example 97, (1r,3r)-N-((6-ethylisoquinolin-5-yl)methyl)-3-(4-fluoro-3-(trifluoromethyl)phenoxy)cyclobutan-1-amine, HCl] | 0.28
14 | Fc1ccc(O[C@H]2C[C@H](NCc3c(F)ccc4cnccc34)C2)cc1C(F)F [Example 91, (1r,3r)-3-(3-(difluoromethyl)-4-fluorophenoxy)-N-((6-fluoroisoquinolin-5-yl)methyl)cyclobutan-1-amine, HCl] | 0.0399
15 | Nc1nccc2c(CN[C@H]3C[C@H](Oc4ccc(F)c(C(F)(F)F)c4)C3)cccc12 [Example 109, 5-((((1r,3r)-3-(4-fluoro-3-(trifluoromethyl)phenoxy)cyclobutyl)amino)methyl)isoquinolin-1-amine] | 1.46
16 | O=C(Cc1cccc2cnccc12)N[C@H]1C[C@H](Oc2ccc(F)c(C(F)(F)F)c2)C1 [Example 65, N-((1r,3r)-3-(4-fluoro-3-(trifluoromethyl)phenoxy)cyclobutyl)-2-(isoquinolin-5-yl)acetamide] | 0.00098
17 | Fc1ccc2cnccc2c1CN[C@H]1C[C@H](Oc2ccc(C3CC3(F)F)cc2)C1 (some centres unmarked) [Example 42, (1r,3r)-3-(4-(2,2-difluorocyclopropyl)phenoxy)-N-((6-fluoroisoquinolin-5-yl)methyl)cyclobutan-1-amine, HCO2H] | 0.173
18 | N#Cc1ccc(O[C@H]2C[C@H](NCc3c(F)ccc4cnccc34)C2)cc1C(F)(F)F [Example 86, 4-((1r,3r)-3-(((6-fluoroisoquinolin-5-yl)methyl)amino)cyclobutoxy)-2-(trifluoromethyl)benzonitrile, HCl] | 0.0693

Row | Structure (SMILES) | IC50 [µM]
19 | Fc1ccc2cnccc2c1CN[C@H]1C[C@H](Oc2ccc(OC(F)(F)F)cc2)C1 [Example 36, (1r,3r)-N-((6-fluoroisoquinolin-5-yl)methyl)-3-(4-(trifluoromethoxy)phenoxy)cyclobutan-1-amine, HCl] | 0.0989
20 | Fc1ccc(NC2CC(NCc3c(F)ccc4cnccc34)C2)cc1C(F)(F)F (centres unmarked) [Example 63, N^1-(4-fluoro-3-(trifluoromethyl)phenyl)-N^3-((6-fluoroisoquinolin-5-yl)methyl)cyclobutane-1,3-diamine] | 0.0986
21 | Fc1ccc2cnccc2c1CN[C@H]1C[C@H](Oc2ccc3c(c2)OC(F)(F)O3)C1 [Example 46, (1r,3r)-3-((2,2-difluorobenzo[d][1,3]dioxol-5-yl)oxy)-N-((6-fluoroisoquinolin-5-yl)methyl)cyclobutan-1-amine, HCl] | 0.0402
22 | OCc1ccc(CN[C@H]2C[C@H](Oc3ccc(F)c(C(F)(F)F)c3)C2)c2ccncc12 [Example 25, (5-((((1r,3r)-3-(4-fluoro-3-(trifluoromethyl)phenoxy)cyclobutyl)amino)methyl)isoquinolin-8-yl)methanol, HCl] | 0.1
23 | Fc1ccc2cnccc2c1CN[C@H]1C[C@H](Oc2nc3ccccc3s2)C1 [Example 96, (1r,3r)-3-(benzo[d]thiazol-2-yloxy)-N-((6-fluoroisoquinolin-5-yl)methyl)cyclobutan-1-amine, HCl] | 0.747
24 | Nc1cc2c(CN[C@H]3C[C@H](Oc4ccnc(C(F)(F)F)c4)C3)c(F)cc(CO)c2cn1 [Example 20, (3-amino-6-fluoro-5-((((1r,3r)-3-((2-(trifluoromethyl)pyridin-4-yl)oxy)cyclobutyl)amino)methyl)isoquinolin-8-yl)methanol, HCl] | 0.0872
25 | Fc1ccc(O[C@H]2C[C@H](NCc3c(F)ccc4cnccc34)C2)cc1C(F)(F)F [Example 3, (1r,3r)-3-(4-fluoro-3-(trifluoromethyl)phenoxy)-N-((6-fluoroisoquinolin-5-yl)methyl)cyclobutan-1-amine, HCl] | 0.00344
26 | Fc1ccc2cnccc2c1CN[C@H]1C[C@H](Oc2ccc3c(c2)OC(F)(F)C(F)(F)O3)C1 [Example 39, (1r,3r)-N-((6-fluoroisoquinolin-5-yl)methyl)-3-((2,2,3,3-tetrafluoro-2,3-dihydrobenzo[b][1,4]dioxin-6-yl)oxy)cyclobutan-1-amine, HCl] | 0.0108
27 | Cc1c(F)cc(O[C@H]2C[C@H](NCc3c(F)cc(CO)c4cnccc34)C2)cc1F [Example 53, (5-((((1r,3r)-3-(3,5-difluoro-4-methylphenoxy)cyclobutyl)amino)methyl)-6-fluoroisoquinolin-8-yl)methanol] | 0.0769
28 | CCOC(=O)c1ccc(O[C@H]2C[C@H](NCc3c(F)ccc4cnccc34)C2)cc1 [Example 80, ethyl 4-((1r,3r)-3-(((6-fluoroisoquinolin-5-yl)methyl)amino)cyclobutoxy)benzoate] | 0.98
29 | OC[C@@H](O)c1cc(F)c(CN[C@H]2C[C@H](Oc3ccc(F)c(C(F)(F)F)c3)C2)c2ccncc12 (single isomer, unassigned; peak 1) [Example 7 peak 1] | 0.00062
30 | Fc1ccc2cnccc2c1CN[C@H]1C[C@H](Oc2ccc(OC(F)F)cc2)C1 [Example 30, (1r,3r)-3-(4-(difluoromethoxy)phenoxy)-N-((6-fluoroisoquinolin-5-yl)methyl)cyclobutan-1-amine, HCl] | 0.186
31 | Fc1ccc(O[C@H]2C[C@H](NCc3c(F)ccc4cnccc34)C2)cc1OC(F)F [Example 50, (1r,3r)-3-(3-(difluoromethoxy)-4-fluorophenoxy)-N-((6-fluoroisoquinolin-5-yl)methyl)cyclobutan-1-amine] | 0.0806
32 | Nc1cc2c(CN[C@H]3C[C@H](Oc4ccc(F)c(C(F)(F)F)c4)C3)c(F)cc([C@@H](O)CO)c2cn1 (single isomer, unassigned; peak 1) [Example 21 peak 1] | 0.00442
33 | FCC(F)c1cc(O[C@H]2C[C@H](NCc3c(F)ccc4cnccc34)C2)ccc1F (some centres unmarked) [Example 40, (1r,3r)-3-(3-(1,2-difluoroethyl)-4-fluorophenoxy)-N-((6-fluoroisoquinolin-5-yl)methyl)cyclobutan-1-amine] | 0.124
34 | CC(C)c1cc(O[C@H]2C[C@H](NCc3cccc4cnccc34)C2)ccc1F [Example 43, (1r,3r)-3-(4-fluoro-3-isopropylphenoxy)-N-(isoquinolin-5-ylmethyl)cyclobutan-1-amine, HCl] | 0.528
35 | Cc1ccc2cnccc2c1CN[C@H]1C[C@H](Oc2ccc(F)c(C(F)(F)F)c2)C1 [Example 1, (1r,3r)-3-(4-fluoro-3-(trifluoromethyl)phenoxy)-N-((6-methylisoquinolin-5-yl)methyl)cyclobutan-1-amine, HCl] | 0.0208
